Data: the supplement of paper PMC10307832

Columns and labels:
Assay in all cases: relative viability (nuclei count vs DMSO), 5 days (fraction); higher = more cells survive
[1] = tested on: LCLC-103H
Outline: (§1)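 One day after seeding in 1536-well plates, lung cancer cell lines were dosed by pin tool. Dosing was either single-drug or a fixed anchor-drug dose plus five library-drug doses (not always all listed) in √10 steps. After 5 days, nuclei were stained in one fix-and-stain step and counted on 4× images, and relative viability is the nuclei count of treated wells over that of vehicle wells, given as the median of duplicate plates.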

[2] = tested on: NCI-H2405
Outline: as §1

[3] = tested on: 201T
Outline: as §1

[4] = tested on: NCI-H1792
Outline: as §1

[5] = tested on: HCC-78
Outline: as §1

[6] = tested on: NCI-H1793
Outline: as §1

[7] = tested on: UMC-11
Outline: as §1

[8] = tested on: EPLC-272H
Outline: as §1

[9] = tested on: NCI-H661
Outline: as §1

[10] = tested on: NCI-H2023
Outline: as §1

[11] = tested on: NCI-H23
Outline: as §1

[12] = tested on: NCI-H1395
Outline: as §1

[13] = tested on: RERF-LC-KJ
Outline: as §1

[14] = tested on: LOU-NH91
Outline: as §1

[15] = tested on: EMC-BAC-2
Outline: as §1

[16] = tested on: NCI-H1437
Outline: as §1

[17] = tested on: NCI-H647
Outline: as §1

[18] = tested on: NCI-H1915
Outline: as §1

[19] = tested on: NCI-H2342
Outline: as §1

[20] = tested on: SK-LU-1
Outline: as §1

[21] = tested on: NCI-H1651
Outline: as §1

[22] = tested on: NCI-H1975
Outline: as §1

SMILES: CCCCCCCCCCCC1=C(O)C(=O)C=C(O)C1=O [Embelin] + CC(=O)Nc1cccc(-n2c(=O)n(C3CC3)c(=O)c3c(Nc4ccc(I)cc4F)n(C)c(=O)c(C)c32)c1 [Trametinib] (partner 0.02 µM)
- relative viability ([1]; first compound 0.08 µM): 0.718
- relative viability ([1]; first compound 0.8 µM): 0.742
- relative viability ([1]; first compound 2.53 µM): 0.674
- relative viability ([1]; first compound 8 µM): 0.698
- relative viability ([2]; first compound 0.08 µM): 0.664
- relative viability ([2]; first compound 0.8 µM): 0.778
- relative viability ([2]; first compound 2.53 µM): 0.638
- relative viability ([2]; first compound 8 µM): 0.626
- relative viability ([3]; first compound 0.08 µM): 0.698
- relative viability ([3]; first compound 0.8 µM): 0.726
- relative viability ([3]; first compound 2.53 µM): 0.731
- relative viability ([3]; first compound 8 µM): 0.731
- relative viability ([4]; first compound 0.08 µM): 0.452
- relative viability ([4]; first compound 0.8 µM): 0.539
- relative viability ([4]; first compound 2.53 µM): 0.532
- relative viability ([4]; first compound 8 µM): 0.459
- relative viability ([5]; first compound 0.08 µM): 0.834
- relative viability ([5]; first compound 0.8 µM): 0.831
- relative viability ([5]; first compound 2.53 µM): 0.752
- relative viability ([5]; first compound 8 µM): 0.696
- relative viability ([6]; first compound 0.08 µM): 0.398
- relative viability ([6]; first compound 0.8 µM): 0.446
- relative viability ([6]; first compound 2.53 µM): 0.511
- relative viability ([6]; first compound 8 µM): 0.419
- relative viability ([7]; first compound 0.08 µM): 0.698
- relative viability ([7]; first compound 0.8 µM): 0.869
- relative viability ([7]; first compound 2.53 µM): 0.758
- relative viability ([7]; first compound 8 µM): 0.593
- relative viability ([8]; first compound 0.08 µM): 0.315
- relative viability ([8]; first compound 0.8 µM): 0.282
- relative viability ([8]; first compound 2.53 µM): 0.296
- relative viability ([8]; first compound 8 µM): 0.253
- relative viability ([9]; first compound 0.08 µM): 0.604
- relative viability ([9]; first compound 0.8 µM): 0.729
- relative viability ([9]; first compound 2.53 µM): 0.657
- relative viability ([9]; first compound 8 µM): 0.521
- relative viability ([10]; first compound 0.08 µM): 0.568
- relative viability ([10]; first compound 0.8 µM): 0.654
- relative viability ([10]; first compound 2.53 µM): 0.613
- relative viability ([10]; first compound 8 µM): 0.495
- relative viability ([11]; first compound 0.08 µM): 0.344
- relative viability ([11]; first compound 0.8 µM): 0.476
- relative viability ([11]; first compound 2.53 µM): 0.437
- relative viability ([11]; first compound 8 µM): 0.396
- relative viability ([12]; first compound 0.08 µM): 0.996
- relative viability ([12]; first compound 0.8 µM): 1.14
- relative viability ([12]; first compound 2.53 µM): 1.14
- relative viability ([12]; first compound 8 µM): 1.14
- relative viability ([13]; first compound 0.08 µM): 0.871
- relative viability ([13]; first compound 0.8 µM): 0.977
- relative viability ([13]; first compound 2.53 µM): 0.896
- relative viability ([13]; first compound 8 µM): 0.853
- relative viability ([14]; first compound 0.08 µM): 0.785
- relative viability ([14]; first compound 0.8 µM): 0.831
- relative viability ([14]; first compound 2.53 µM): 0.828
- relative viability ([14]; first compound 8 µM): 0.805
- relative viability ([15]; first compound 0.08 µM): 0.845
- relative viability ([15]; first compound 0.8 µM): 1.08
- relative viability ([15]; first compound 2.53 µM): 0.883
- relative viability ([15]; first compound 8 µM): 0.913
- relative viability ([16]; first compound 0.08 µM): 0.531
- relative viability ([16]; first compound 0.8 µM): 0.607
- relative viability ([16]; first compound 2.53 µM): 0.648
- relative viability ([16]; first compound 8 µM): 0.505
- relative viability ([17]; first compound 0.08 µM): 0.489
- relative viability ([17]; first compound 0.8 µM): 0.528
- relative viability ([17]; first compound 2.53 µM): 0.638
- relative viability ([17]; first compound 8 µM): 0.446
- relative viability ([18]; first compound 0.08 µM): 0.319
- relative viability ([18]; first compound 0.8 µM): 0.33
- relative viability ([18]; first compound 2.53 µM): 0.263
- relative viability ([18]; first compound 8 µM): 0.295
- relative viability ([19]; first compound 0.08 µM): 0.95
- relative viability ([19]; first compound 0.8 µM): 0.806
- relative viability ([19]; first compound 2.53 µM): 0.866
- relative viability ([19]; first compound 8 µM): 0.757
- relative viability ([20]; first compound 0.08 µM): 0.505
- relative viability ([20]; first compound 0.8 µM): 0.542
- relative viability ([20]; first compound 2.53 µM): 0.691
- relative viability ([20]; first compound 8 µM): 0.39
- relative viability ([21]; first compound 0.08 µM): 0.845
- relative viability ([21]; first compound 0.8 µM): 0.905
- relative viability ([21]; first compound 2.53 µM): 0.824
- relative viability ([21]; first compound 8 µM): 0.83
- relative viability ([22]; first compound 0.08 µM): 0.38
- relative viability ([22]; first compound 0.8 µM): 0.379
- relative viability ([22]; first compound 2.53 µM): 0.376
- relative viability ([22]; first compound 8 µM): 0.369
